The structures appear in SMILES notation. In brackets after ≈: the same amount, converted by molar mass. Some results are limits rather than exact numbers.

This note sets out measurements from ChEMBL document CHEMBL5584210, “Design, synthesis and antitubercular assessment of 1, 2, 3-triazole incorporated thiazolylcarboxylate derivatives” (Bioorg Med Chem Lett, 2024).

The test system of series [1] is Mycobacterium tuberculosis. The series can be described thus: Antimycobacterial activity against Mycobacterium tuberculosis H37Rv by alamar blue assay. Format: functional. A general note: Resazurin is reduced to fluorescent resorufin, in cell work by metabolically active cells.
Series [2] can be described thus: Cytotoxicity against mouse RAW264.7 cells assessed as inhibition of cell growth at 25 ug/ml incubated for 48 hrs by MTT assay relative to control. It counts as toxicity, cell-based. The settings on record: at 25 µg/mL. In general terms: Tetrazolium dyes change colour on reduction, which living cells bring about.

On to `CCc1cc(-c2nc(C)c(C(=O)OCc3cn(-c4ccc(Cl)cc4)nn3)s2)ccn1`, for which, in series [1], the MIC – broadly, the smallest concentration in the dilution series that meets the test's criterion for growth inhibition – amounted to 25 mg/L (≈ 56.8 µM).
In series [1], `CCCc1cc(-c2nc(C)c(C(=O)OCc3cn(-c4ccc(C)cc4)nn3)s2)ccn1` showed an MIC greater than 25 mg/L.
`CCc1cc(-c2nc(C)c(C(=O)OCc3cn(-c4c(C)cc(C)cc4C)nn3)s2)ccn1` registered a minimal inhibitory concentration (MIC) in series [1] of 25 mg/L (≈ 55.9 µM).
Consider `CCc1ccc(-n2cc(COC(=O)c3sc(-c4ccnc(CC)c4)nc3C)nn2)cc1`, for which, in series [2], the inhibition (in general, the change of the read-out against control, counted positive when it falls) at 48 h, 25 ug/ml worked out at 29.2%. In addition, in series [1], the MIC is 3.12 mg/L (≈ 7.2 µM).
For `CCCc1cc(-c2nc(C)c(C(=O)OCc3cn(-c4cccc([N+](=O)[O-])c4)nn3)s2)ccn1`, the MIC in series [1] is greater than 25 mg/L.
Molecule `CCc1cc(-c2nc(C)c(C(=O)OCc3cn(-c4ccccc4Cl)nn3)s2)ccn1` displayed a minimum inhibitory concentration (MIC) in series [1] of 25 mg/L (≈ 56.8 µM).
`CCc1cc(-c2nc(C)c(C(=O)OCc3cn(-c4cccc(Cl)c4)nn3)s2)ccn1` displayed an MIC in series [1] of 25 mg/L (≈ 56.8 µM).
In series [1], `CCc1cc(-c2nc(C)c(C(=O)OCc3cn(-c4ccccc4C)nn3)s2)ccn1` showed an MIC of 12.5 mg/L (≈ 29.8 µM).
For the molecule `CCc1cc(-c2nc(C)c(C(=O)OCc3cn(-c4ccc(C)cc4C)nn3)s2)ccn1`, the inhibition at 48 h, 25 ug/ml in series [2] was 21.9%. The same molecule came in with an MIC in series [1] of 6.25 mg/L (≈ 14.4 µM).
`CCCc1cc(-c2nc(C)c(C(=O)OCc3cn(-c4ccc(Br)cc4)nn3)s2)ccn1`: the MIC in series [1] is 25 mg/L (≈ 50.2 µM).
`CCc1cc(-c2nc(C)c(C(=O)OCc3cn(-c4ccc(Br)cc4)nn3)s2)ccn1` displayed an MIC in series [1] greater than 25 mg/L.
`CCc1cc(-c2nc(C)c(C(=O)OCc3cn(-c4ccccc4F)nn3)s2)ccn1` gave an MIC in series [1] of 12.5 mg/L (≈ 29.5 µM).
With `CCCc1cc(-c2nc(C)c(C(=O)OCc3cn(-c4ccc(OC)cc4)nn3)s2)ccn1`, the MIC in series [1] was greater than 25 mg/L.
Take `O=C(O)c1cn(C2CC2)c2cc(N3CCNCC3)c(F)cc2c1=O` [CIPROFLOXACIN]: in series [1], the MIC came to 1.56 mg/L (≈ 4.71 µM).
On to `CCCc1cc(-c2nc(C)c(C(=O)OCc3cn(-c4cccc(OC)c4)nn3)s2)ccn1`, for which the inhibition at 48 h, 25 ug/ml in series [2] came out at 25.7%. Besides, the lowest concentration to inhibit growth in series [1] (MIC) was 6.25 mg/L (≈ 13.9 µM).
For `CCCc1cc(-c2nc(C)c(C(=O)OCc3cn(-c4ccccc4)nn3)s2)ccn1`, the MIC in series [1] is 12.5 mg/L (≈ 29.8 µM).
In turn, `CCc1cc(-c2nc(C)c(C(=O)OCc3cn(-c4ccc(C)c([N+](=O)[O-])c4)nn3)s2)ccn1` showed an MIC in series [1] of 12.5 mg/L (≈ 26.9 µM).
As for `CCCc1cc(-c2nc(C)c(C(=O)OCc3cn(-c4ccc(CC)cc4)nn3)s2)ccn1`, the inhibition at 48 h, 25 ug/ml in series [2] was 27.2%. For the same molecule, the MIC in series [1] worked out at 1.56 mg/L (≈ 3.49 µM).
In turn, `CCc1cc(-c2nc(C)c(C(=O)OCc3cn(-c4ccc(OC)cc4)nn3)s2)ccn1` displayed an MIC in series [1] of 12.5 mg/L (≈ 28.7 µM).
With `CCc1cc(-c2nc(C)c(C(=O)OCc3cn(-c4cccc(OC)c4)nn3)s2)ccn1`, the inhibition at 48 h, 25 ug/ml in series [2] was determined as 26%. For the same molecule, the MIC in series [1] turned out to be 6.25 mg/L (≈ 14.4 µM).
Regarding `CC[C@@H](CO)NCCN[C@@H](CC)CO` [ETHAMBUTOL], the MIC in series [1] turned out to be 3.12 mg/L (≈ 15.3 µM).
Take `CCCc1cc(-c2nc(C)c(C(=O)OCc3cn(-c4ccccc4F)nn3)s2)ccn1`: the MIC in series [1] turned out to be 25 mg/L (≈ 57.1 µM).
`CCc1cc(-c2nc(C)c(C(=O)OCc3cn(-c4cccc([N+](=O)[O-])c4)nn3)s2)ccn1` had an MIC in series [1] of 12.5 mg/L (≈ 27.7 µM).
`CCc1cc(-c2nc(C)c(C(=O)OCc3cn(-c4ccc(C)cc4)nn3)s2)ccn1` showed a minimum inhibitory concentration (MIC) in series [1] of 25 mg/L (≈ 59.6 µM).
In series [1], `CCc1cc(-c2nc(C)c(C(=O)OCc3cn(-c4ccccc4)nn3)s2)ccn1` showed an MIC of 25 mg/L (≈ 61.7 µM).
In the case of `CCc1cc(-c2nc(C)c(C(=O)OCc3cn(-c4cccc(C)c4)nn3)s2)ccn1`, the inhibition at 48 h, 25 ug/ml in series [2] was found to be 30.1%. Further, in series [1], the MIC was 6.25 mg/L (≈ 14.9 µM).
`CCCc1cc(-c2nc(C)c(C(=O)OCc3cn(-c4cccc(Cl)c4)nn3)s2)ccn1` displayed an MIC in series [1] of 12.5 mg/L (≈ 27.5 µM).
`CCc1cc(-c2nc(C)c(C(=O)OCc3cn(-c4ccccc4OC)nn3)s2)ccn1` had an MIC in series [1] greater than 25 mg/L.
In series [1], `CCCc1cc(-c2nc(C)c(C(=O)OCc3cn(-c4ccc(Cl)cc4)nn3)s2)ccn1` gave an MIC greater than 25 mg/L.
